“And” between values parts separate entries of the source, which are not always exact repeats. Equal values may be shown once.
Tests used:
[1] = target: T1, GST-CREB / HA-P300 interaction (Homo sapiens, UniProt P16220); assay: GST-CREB pull-down of HA-P300 from HEK293T lysate; type: biochemical; conditions: APC 10 μM
T1 construct: made in house; host or cells: GST-CREB beads (pGEX5X-1); HA-P300 expressed in HEK293T cells
Experimental: 1 Supplementary Figure 2.
2 a) Immunoblot of HA-P300 recovered from HEK293T cell lysate using GST-CREB beads. APC
3 (10 μM) was incubated with cells for 1-h before FKS (10 nM) stimulation and was included in the
4 following pull-down mixtures (n=3). One of two independent experiments presented here.
5 b) Immunoblot for recovered GFP-CRTC1 or (c) GFP-CRTC3 immunoprecipitated by MYC-CREB
6 from overexpression HEK293T cell line. APC (10 μM) was incubated with cells for 1-h before FKS
7 (10 nM) stimulation and was included in the following pull-down mixtures. One of two independent
8 experiments presented here.
9 d) SPR sonogram traces of APC binding with HIS-CREB proteins immobilized to NTA-chip. The
10 concentration series of APC was as indicated.
11 e) SPR sonogram traces of APC flowing through HIS-CRTC2-S171A proteins immobilized on
12 NTA-chip. The concentration of APC was as indicated.
13 f) The luciferase enzymatic activity of HEK293T incubated with APC. Cells over-expressed
14 luciferase CRE-Luc reporter and were stimulated by FSK (10 nM) for 5-h before lysis, which was
15 then incubated with APC (concentration indicated) for 30 min before luciferase activity determination
16 (n=3 per treatment). Data are represented as mean ± SEM. *, p < 0.05; **, p < 0.01; p values were
17 determined by one-way ANOVA followed Dunnett’s multiple comparisons test. […]

[2] = test system: G6pc promoter (G6p-Luc) in the liver; assay: Live imaging of hepatic G6p-Luc reporter; type: in vivo, mouse
Source text: Complete DNA sequences encoding human Creb and Crtc2 were cloned in the plasmids psc811 and psc804 to express BD-CREB and VP16AD-CRTC2 recombined proteins, respectively. GAL4-luciferase and RSV (Rous Sarcoma Virus)-Renilla were constructed using the pGL3 plasmid. pGEX5X-1 and pET28C were used to construct plasmids for GST- and HIS-tagged proteins expression, respectively. Adenoviruses encoding Ad-HA-Crtc2, Ad-GFP, and Ad-RSV-β-Gal (galactosidase) have been described previously. For infecting primary hepatocytes, 0.5–1 MOI adenovirus was employed. For live imaging experiments, 10^8 plaques forming units (pfu) Ad-G6P-Luc and 5 × 10^7 pfu Ad-RSV-β-gal adenovirus were delivered to mice by tail vein injection. Mice were then imaged on day 3–5 after adenovirus delivery.
After two days of tail intravenously delivery of Ad-G6p-Luc (10^8 pfu) and Ad-RSV-β-Gal (5 × 10^7 pfu) adenoviruses, mice were orally administered propolis or i.p. injected with APC one dose per day for another 3 days. After 16 h fasting, mice were anesthetized using gaseous isoflurane (Abbott), were i.p. injected with 100 mg/kg sterile firefly D-luciferin (Biosynth AG), and 15 min later, imaged by IVIS-100 Imaging System and analyzed with Living Image Software (Xenogen). Liver lysates were prepared to determine β-Gal activity. Luciferase activity detected for each mouse was normalized to the β-Gal expression in the liver.

[3] = test system: gluconeogenic and lipogenic gene mRNA in primary hepatocytes; assay: Quantitative PCR of gene expression in primary hepatocytes; type: cell-based, mouse; set-up: key to Lxra mRNA levels: mRNA level normalized to ribosomal L32 mRNA (internal control); key to Crtc2 mRNA levels / Srebf-1c mRNA levels / Srebf-2 mRNA levels / mRNA levels of G6pc / mRNA levels of CREB / mRNA levels of CRTC2: relative mRNA level, normalized to ribosomal L32; conditions: for Lxra mRNA levels, Mean / Srebf-2 mRNA levels, Mean / Srebf-1c mRNA levels, Mean / Crtc2 mRNA levels, Mean / Crtc2 mRNA levels / Lxra mRNA levels / Srebf-1c mRNA levels / Srebf-2 mRNA levels: Figure 7f; for Lxra mRNA levels, Mean / Srebf-2 mRNA levels, Mean / Srebf-1c mRNA levels, Mean / Crtc2 mRNA levels, Mean: mean of N=3; for Crtc2 mRNA levels / Lxra mRNA levels / Srebf-1c mRNA levels / Srebf-2 mRNA levels / mRNA levels of G6pc / mRNA levels of Pck1: single replicates; for mRNA of G6pc, mean / mRNA of Pck1, mean / mRNA levels of G6pc / mRNA levels of Pck1: Figure 9d; for mRNA of G6pc, mean / mRNA of Pck1, mean: group mean, N 6; for mRNA levels of CREB / mRNA levels of CRTC2 / mRNA levels of CREB, group mean (Mean 2) / mRNA levels of CRTC2, group mean (Mean 2): Supp. Fig.10 d; for mRNA levels of CREB / mRNA levels of CRTC2: individual replicates; for mRNA levels of CREB, group mean (Mean 2) / mRNA levels of CRTC2, group mean (Mean 2): n=6
Experimental: Total RNA from cells and tissues was extracted by Trizol (Invitrogen) and reverse-transcribed into cDNA using the prime script RT reagent kit with gDNA eraser (Takara). The mRNA levels were determined using the SYBR-green PCR kit (Takara) with ABIPRISM 7900HT Sequence detector (ABI) according to the manufacturer’s protocol. The quantitative qPCR primers used in this work are listed in Supplementary Table 1. Ribosomal L32 mRNA levels were used as an internal control.

[4] = test system: cAMP in primary hepatocytes; assay: Measurement of cAMP levels; type: cell-based, mouse; conditions: for cAMP, mean / cAMP: Gluc; for cAMP, mean: n=4 (Ctrl_Gluc 10.79); for cAMP: Supp. fig.3c, individual replicates
Experimental: At the end of indicated treatments, primary hepatocytes were collected in lysis buffer. The cAMP contents of cell lysates were then determined using cAMP ELISA kits (R&D) and normalized by total protein content as determined by BCA assay (Thermo).

FGF21 = assay: Immunoblotting of plasma and liver FGF21; type: in vivo, mouse

T1 sequence (P16220 whole entry): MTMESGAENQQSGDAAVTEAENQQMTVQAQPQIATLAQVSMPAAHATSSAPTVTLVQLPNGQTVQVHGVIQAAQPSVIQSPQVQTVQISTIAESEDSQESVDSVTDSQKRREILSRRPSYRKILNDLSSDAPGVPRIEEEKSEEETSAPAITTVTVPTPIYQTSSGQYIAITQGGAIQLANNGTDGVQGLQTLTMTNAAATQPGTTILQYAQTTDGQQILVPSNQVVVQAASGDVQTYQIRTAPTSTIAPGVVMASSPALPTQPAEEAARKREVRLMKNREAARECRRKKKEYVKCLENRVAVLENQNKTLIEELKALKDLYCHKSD
T1 sequence (B2RWS6 whole entry partner): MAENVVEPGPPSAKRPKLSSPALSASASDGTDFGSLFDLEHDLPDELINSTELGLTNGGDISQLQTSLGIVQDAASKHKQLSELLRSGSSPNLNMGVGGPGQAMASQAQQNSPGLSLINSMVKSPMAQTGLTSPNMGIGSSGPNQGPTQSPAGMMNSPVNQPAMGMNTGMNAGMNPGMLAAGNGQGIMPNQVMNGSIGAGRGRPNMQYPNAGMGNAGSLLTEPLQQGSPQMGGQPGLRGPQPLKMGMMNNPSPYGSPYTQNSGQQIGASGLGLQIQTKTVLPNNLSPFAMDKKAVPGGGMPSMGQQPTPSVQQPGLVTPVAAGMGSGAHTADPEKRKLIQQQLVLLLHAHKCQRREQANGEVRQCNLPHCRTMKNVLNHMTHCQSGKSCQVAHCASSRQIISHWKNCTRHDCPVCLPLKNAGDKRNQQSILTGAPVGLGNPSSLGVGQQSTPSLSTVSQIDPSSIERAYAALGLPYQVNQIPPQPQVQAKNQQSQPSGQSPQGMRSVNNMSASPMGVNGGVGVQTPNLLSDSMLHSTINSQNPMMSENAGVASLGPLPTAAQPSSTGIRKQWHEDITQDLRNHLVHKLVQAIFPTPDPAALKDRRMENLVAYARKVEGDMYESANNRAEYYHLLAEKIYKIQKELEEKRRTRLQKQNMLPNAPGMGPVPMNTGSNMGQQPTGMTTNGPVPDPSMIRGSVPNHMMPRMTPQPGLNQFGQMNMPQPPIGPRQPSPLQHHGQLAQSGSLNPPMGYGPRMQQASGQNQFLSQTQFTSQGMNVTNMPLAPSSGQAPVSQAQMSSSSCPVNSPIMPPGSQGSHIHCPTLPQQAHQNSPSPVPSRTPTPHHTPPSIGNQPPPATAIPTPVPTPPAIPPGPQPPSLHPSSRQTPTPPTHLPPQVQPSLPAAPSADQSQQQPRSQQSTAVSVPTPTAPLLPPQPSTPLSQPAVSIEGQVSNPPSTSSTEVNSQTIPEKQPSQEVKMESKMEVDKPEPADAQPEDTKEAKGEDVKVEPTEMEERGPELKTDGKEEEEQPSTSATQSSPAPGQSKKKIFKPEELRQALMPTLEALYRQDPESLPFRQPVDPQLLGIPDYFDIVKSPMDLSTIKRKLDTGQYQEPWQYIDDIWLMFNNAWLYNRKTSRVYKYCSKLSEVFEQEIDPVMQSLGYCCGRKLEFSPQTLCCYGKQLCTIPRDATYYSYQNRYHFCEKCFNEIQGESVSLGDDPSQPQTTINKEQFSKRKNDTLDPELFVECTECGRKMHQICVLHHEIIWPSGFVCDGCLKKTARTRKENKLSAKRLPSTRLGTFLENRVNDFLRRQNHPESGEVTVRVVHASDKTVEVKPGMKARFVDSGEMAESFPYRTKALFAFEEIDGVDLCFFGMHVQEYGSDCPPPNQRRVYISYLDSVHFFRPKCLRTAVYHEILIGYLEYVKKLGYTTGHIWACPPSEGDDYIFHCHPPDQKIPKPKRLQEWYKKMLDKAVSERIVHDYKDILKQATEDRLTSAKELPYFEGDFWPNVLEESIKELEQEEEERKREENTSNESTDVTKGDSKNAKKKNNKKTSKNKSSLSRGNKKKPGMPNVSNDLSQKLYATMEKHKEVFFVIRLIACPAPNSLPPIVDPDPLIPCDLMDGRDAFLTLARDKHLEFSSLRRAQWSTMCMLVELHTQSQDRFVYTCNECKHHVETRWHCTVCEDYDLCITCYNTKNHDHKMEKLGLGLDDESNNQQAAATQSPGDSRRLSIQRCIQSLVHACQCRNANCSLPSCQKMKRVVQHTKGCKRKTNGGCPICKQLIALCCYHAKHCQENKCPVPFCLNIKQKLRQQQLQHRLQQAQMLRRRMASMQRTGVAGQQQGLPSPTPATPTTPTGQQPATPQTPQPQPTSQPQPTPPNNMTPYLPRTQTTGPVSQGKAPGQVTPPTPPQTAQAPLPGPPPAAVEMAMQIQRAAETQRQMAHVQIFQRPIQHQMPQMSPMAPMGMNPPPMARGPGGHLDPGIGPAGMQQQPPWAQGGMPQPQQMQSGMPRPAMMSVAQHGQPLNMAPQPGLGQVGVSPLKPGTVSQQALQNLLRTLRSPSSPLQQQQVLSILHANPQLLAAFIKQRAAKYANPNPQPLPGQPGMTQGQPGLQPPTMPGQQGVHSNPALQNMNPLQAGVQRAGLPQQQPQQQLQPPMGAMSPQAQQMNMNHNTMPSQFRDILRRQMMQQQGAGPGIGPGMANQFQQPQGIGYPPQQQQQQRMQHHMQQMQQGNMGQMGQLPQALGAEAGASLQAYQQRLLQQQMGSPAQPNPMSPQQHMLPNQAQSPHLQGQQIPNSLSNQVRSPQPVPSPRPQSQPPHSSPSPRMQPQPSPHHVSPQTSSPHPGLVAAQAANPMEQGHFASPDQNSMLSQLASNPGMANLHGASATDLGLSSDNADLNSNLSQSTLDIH

## CC(C)=CCc1cc(C=CC(=O)O)cc(CC=C(C)C)c1O [APC, 3,5-diprenyl-4-hydroxycinnamic acid]
[1]
  association of CREB with P300: little effect
[2]; DIO mice, i.p. 20 mg/kg daily, 3 days
  G6P-Luc reporter activity in the livers: substantially decreased
[2]; Figure 8a right, group mean, n=5, VEH mean 0.996
  Relative G6P-LUC activity, folds (mean of column B): 0.402 folds
[2]; Figure 8a right, individual mice, vs VEH
  Relative G6P-LUC activity, folds: 0.6379 folds and 0.1281 folds and 0.5105 folds and 0.3399 folds and 0.3902 folds
[3]; LV-CRTC2(S171A), Ctrl mean 1.393
  Lxra mRNA levels, Mean: 0.7111
[3]; LV-CRTC2(S171A), Ctrl mean 1.711
  Srebf-2 mRNA levels, Mean: 0.86
[3]; LV-CRTC2(S171A), Ctrl mean 1.819
  Srebf-1c mRNA levels, Mean: 1.166
[3]; LV-CRTC2(S171A), Ctrl mean 153.3
  Crtc2 mRNA levels, Mean: 159.3
[3]; LV-Crtc2-S171A
  Crtc2 mRNA levels: 189.700 and 115.000 and 173.200
  Lxra mRNA levels: 0.732 and 0.747 and 0.654
  Srebf-1c mRNA levels: 1.132 and 1.102 and 1.263
  Srebf-2 mRNA levels: 0.860 and 0.819 and 0.901
[3]; LV-GFP, Ctrl mean 0.9233
  Crtc2 mRNA levels, Mean: 1.106
[3]; LV-GFP, Ctrl mean 0.93
  Lxra mRNA levels, Mean: 0.8542
[3]; LV-GFP, Ctrl mean 0.9967
  Srebf-2 mRNA levels, Mean: 1.087
[3]; LV-GFP, Ctrl mean 1.053
  Srebf-1c mRNA levels, Mean: 0.9578
[3]; LV-Gfp
  Crtc2 mRNA levels: 1.240 and 0.976 and 1.101
  Lxra mRNA levels: 0.950 and 0.709 and 0.904
  Srebf-1c mRNA levels: 0.940 and 1.083 and 0.850
  Srebf-2 mRNA levels: 1.040 and 1.162 and 1.060
[3]; +Gluc
  mRNA of G6pc, mean: 73.01
  mRNA of Pck1, mean: 64.35
  mRNA levels of G6pc: 67.250 and 68.919 and 73.819 and 74.050 and 79.623 and 74.414
  mRNA levels of Pck1: 68.035 and 58.064 and 57.318 and 65.734 and 69.952 and 67.024
  mRNA levels of CREB: 0.685 and 0.852 and 0.9121 and 0.8012 and 0.8061 and 0.6905
  mRNA levels of CRTC2: 0.8083 and 0.8216 and 1.1926 and 0.9078 and 0.9957 and 1.2399
[3]; -Gluc
  mRNA of G6pc, mean: 0.2875
  mRNA of Pck1, mean: 0.3152
  mRNA levels of G6pc: 0.207 and 0.251 and 0.273 and 0.385 and 0.234 and 0.375
  mRNA levels of Pck1: 0.283 and 0.267 and 0.371 and 0.342 and 0.306 and 0.322
  mRNA levels of CREB: 0.9172 and 0.8231 and 0.8735 and 0.9451 and 0.728 and 1.0773
  mRNA levels of CRTC2: 1.0775 and 1.0279 and 1.0015 and 1.1906 and 1.0107 and 1.2086
[3]; +Gluc, Ctrl mean 0.8616
  mRNA levels of CREB, group mean (Mean 2): 0.7912
[3]; +Gluc, Ctrl mean 0.8879
  mRNA levels of CRTC2, group mean (Mean 2): 0.9943
[3]; -Gluc, Ctrl mean 0.9538
  mRNA levels of CREB, group mean (Mean 2): 0.894
[3]; -Gluc, Ctrl mean 1.009
  mRNA levels of CRTC2, group mean (Mean 2): 1.086
[3]; primary hepatocytes, APC 10 μM, 8-h
  mRNA levels of Lxrα, Srebf1 and Srebf2 with overexpressed Crtc2-S171A: effectively reduced
[3]; primary hepatocytes, APC 1, 5 or 50 μM
  mRNA accumulation of G6pc, Pck1 and Pgc-1α induced by glucagon: remarkably decreased
[4]; APC 0.5H
  cAMP, mean: 11.36 pmol/µg
  cAMP: 9.765 pmol/µg and 13.6965 pmol/µg and 13.5803 pmol/µg and 8.4137 pmol/µg
[4]; APC 1H
  cAMP, mean: 10.43 pmol/µg
  cAMP: 10.9076 pmol/µg and 11.1137 pmol/µg and 11.3636 pmol/µg and 8.343 pmol/µg
[4]; APC 5H
  cAMP, mean: 10.31 pmol/µg
  cAMP: 11.3502 pmol/µg and 9.481 pmol/µg and 11.2821 pmol/µg and 9.132 pmol/µg
[4]; primary hepatocytes
  cAMP accumulation induced by glucagon: did not alter
FGF21; Supp. Fig.10 f down, WT mice, n=3, VEH mean 1.024
  liver FGF21 in WT, group mean (Mean 2): 2.405
FGF21; Supp. Fig.10 f down, WT mice, oral, individual replicates, Veh about 1.02
  Bands density of FGF21 in the liver: 2.277 and 2.103 and 2.8341
FGF21; Supp. Fig.10 f up, WT mice, individual replicates, VEH about 1.08
  Bands density, plasma FGF21 in WT: 1.716 and 1.667 and 1.521
FGF21; Supp. Fig.10 f up, WT mice, n=3, VEH mean 1.077
  Bands density, plasma FGF21 in WT, group mean (Mean 2): 1.634
FGF21; wild-type control group, oral 20 mg/kg, 3 weeks
  plasma and liver FGF21: increased
